{"source": "paper PMC11131023", "about": "“Oral delivery of nanomedicine for genetic kidney disease” (PNAS Nexus, 2024)", "key": {"Caco-2 cells": {"test_system": "Caco-2 cells", "assay": "TER measurement of Caco-2 monolayers after CP treatment", "assay_type": "cell-based, human", "details": "Caco-2 monolayer, up to 3 days after administration", "procedure": "In addition to protection against an acidic environment mimicking the stomach, chitosan has been reported to open tight junctions within the intestinal epithelium and increase bioavailability in vivo ([51]). […] TER was measured three days before treatment and again after administration of nanoparticles or free drug for up to 3 days.\nTER measurements were performed using an EVOM2 Epithelial Voltohmmeter (World Precision Instruments, USA)."}, "AMPK": {"test_system": "AMPK", "assay": "Intestine-kidney in vitro Transwell model, phospho-AMPK ELISA", "assay_type": "cell-based, mouse", "details": "mpkCCDc14 cells below Caco-2 cells on Transwell, after 12 hours, N ≥ 3", "procedure": "To collect cysts grown in Matrigel, cysts were kept on ice for 1 h to liquidize the Matrigel and centrifuged at 400×g for 5 min to collect the cyst in the pellet. All standards and samples were measured on a Varioskan LUX microplate reader at a wavelength of 450 nm. The phospho-AMPK to total AMPK ratio was normalized to the PBS group and presented in percentage."}, "[1]": {"assay": "Biodistribution after oral gavage (ex vivo organ Cy7 fluorescence)", "details": "200 μL of 500 µM Cy7-labeled, 24 h, ex vivo imaging, N = 4", "procedure": "All animal procedures followed NIH guidelines for the care and use of laboratory animals and were approved by the University of Southern California's Institutional Animal Care and Use Committee. […] Mice were euthanized 24 h postinjection and organs (e.g. brain, heart, lungs, liver, kidneys, spleen, intestines, and bladder) were excised, imaged ex vivo on an AMI HTX in vivo imaging system, and the fluorescence signal was quantified via Aura software (Spectral Instruments Imaging, Tucson, AZ, USA, n ≥ 4). The mean radiance (photons/s/cm^2/sr) for each organ was quantified as a region of interest, and % of total organ fluorescence was obtained by dividing the fluorescence level of each organ by the sum of all the organ regions. Background was subtracted from the PBS-treated group."}, "[2]": {"assay": "Kidney health in ADPKD mice (i-Stat Chem-8+ blood analysis)", "assay_type": "in vivo, mouse", "procedure": "On the day of harvest, 90 µL of blood taken from the submandibular vein was analyzed using Chem-8+ cartridges for the i-Stat Handheld Blood Analyzer (Abbott, Chicago, IL, USA). Kidney health markers including measurements of plasma sodium (Na), potassium (K), chloride (Cl), ionized calcium (iCa), total carbon dioxide (tCO2), glucose (Glu), BUN/urea, creatinine (Crea), hematocrit (Hct), and hemoglobin (Hb) were evaluated."}, "[3]": {"details": "cited from earlier work", "text": "The primary obstacle in the current management of kidney disease lies in the inadequate drug concentration within the kidney. This limitation is particularly evident in the case of ADPKD, where the only FDA-approved treatment, tolvaptan, achieves ∼5.7% accumulation in the kidney after oral administration ([62]). Similarly, in our study, ∼4.5% of free metformin accumulated in the kidney. Given the pronounced deficiency in kidney bioavailability observed with free drugs, our innovative oral kidney-targeting nanoformulation emerges as a promising solution to the current clinical challenges by pro ..."}, "[4]": {"set-up": "method as in PMID 24211079", "details": "cited from earlier work"}, "[5]": {"details": "oral every 3 days P30-P120, day of harvest"}}, "data": [{"compound": "CN(C)C(=N)N=C(N)N", "note": "[free metformin, metformin]", "values": [{"measurement": "change in TER", "setting": "Caco-2 cells", "value": "no changes in TER"}, {"measurement": "phosphorylated AMPK to total AMPK", "setting": "AMPK", "value": "1.3 ± 0.4"}, {"measurement": "kidney accumulation (% of total organ fluorescence)", "setting": "[1]", "value": "~4.5", "unit": "%"}, {"measurement": "Na", "setting": "[2]; oral every 3 days P30-P120, blood from submandibular vein, day of harvest", "value": "144.6 ± 1.6", "unit": "mmol/L"}, {"measurement": "BUN/Urea", "setting": "[2]; [5]", "value": "22.8 ± 7.8", "unit": "md/dL"}, {"measurement": "Cl", "setting": "[2]; [5]", "value": "113.0 ± 3.2", "unit": "mmol/L"}, {"measurement": "Crea", "setting": "[2]; [5]", "value": "<0.2", "unit": "md/dL"}, {"measurement": "Glu", "setting": "[2]; [5]", "value": "220 ± 24.4", "unit": "mg/dL"}, {"measurement": "Hb", "setting": "[2]; [5]", "value": "12.8 ± 0.9", "unit": "g/dL"}, {"measurement": "Hct", "setting": "[2]; [5]", "value": "37.4 ± 3.0", "unit": "PCV"}, {"measurement": "K", "setting": "[2]; [5]", "value": "5.9 ± 1.4", "unit": "mmol/L"}, {"measurement": "iCa", "setting": "[2]; [5]", "value": "1.1 ± 0.2", "unit": "mmol/L"}, {"measurement": "tCO2", "setting": "[2]; [5]", "value": "23.1 ± 0.8", "unit": "mmol/L"}]}, {"compound": "Cc1ccccc1C(=O)Nc1ccc(C(=O)N2CCCC(O)c3cc(Cl)ccc32)c(C)c1", "note": "(stereo not drawn) [tolvaptan]", "values": [{"measurement": "accumulation in the kidney after oral administration", "setting": "[3]", "value": "~5.7", "unit": "%"}]}, {"compound": "Cy7-DSPE-PEG2000-(KKEEE)3K [free amphiphilic monomers, unassembled kidney-targeting amphiphiles]", "values": [{"measurement": "critical micelle concentration", "setting": "[4]", "value": "~1", "unit": "µM"}]}]}
